Entries after “also recorded” stand apart in the source; their conditions may differ.
How the values were obtained:
[1] = Compound 67A pharmacokinetics in human subjects; format: in vivo; details: for Cmax / Tmax / AUC(0-t): in vivo, human subjects
Protocol: Compound 67A pharmacokinetics were analyzed in human subjects (Table 1, FIGS. 2A-2B)

[2] = tested on: advanced hematologic and solid tumors; test: Phase 1/2 monotherapy: clinical efficacy (Lugano, RECIST v1.1); format: in vivo, human; details: for time on treatment: treatment ongoing
Protocol: Compound 67A was analyzed in hematological and solid tumors. Dose escalation studies comprised of subjects with B-cell non-Hodgkin's lymphoma, chronic lymphocytic leukemia, multiple myeloma, breast cancer, head and neck cancer, soft tissue sarcoma, and ovarian cancer. Backfill studies comprised of subjects with diffuse large b-cell lymphoma (DLBCL), B-cell malignancies, pancreatic cancer, small-cell lung cancer, and HPV+HNSCC. Dosage for the Phase 1/2 monotherapy study is seen in FIG. 4.
Subjects with advanced hematologic and solid tumors were treated with continuous 28-day cycles of increasing doses of Compound 67A with an accelerated titration and 3+3 trial design. As of Dec. […] Six subjects (26.1%) experienced a Compound 67A-related adverse event with only Grade 1/2 nausea (n=3, 13%) and constipation (n=2, 8.7%) occurring in >1 subject. There were no reported Compound 67A-related myelosuppression, serious adverse events, study discontinuation, or deaths.
Ten subjects were response evaluable prior to the data cut off.

[3] = Phase 1/2 monotherapy: safety and tolerability; format: in vivo; details: 23 subjects
Excerpt: Dose escalation studies comprised of subjects with B-cell non-Hodgkin's lymphoma, chronic lymphocytic leukemia, multiple myeloma, breast cancer, head and neck cancer, soft tissue sarcoma, and ovarian cancer. Backfill studies comprised of subjects with diffuse large b-cell lymphoma (DLBCL), B-cell malignancies, pancreatic cancer, small-cell lung cancer, and HPV+HNSCC. Dosage for the Phase 1/2 monotherapy study is seen in FIG. 4.

[4] = Food effect pharmacokinetics, 90 mg QD, cycle 1 day 1; format: in vivo, human; details: for Cmax / AUC(0-t) / Tmax: human, in vivo, oral, 90 mg, 90 mg QD, cycle 1 day 1; for Cmax / AUC(0-t): Mean ± SD; for AUC(0-t): read-out: AUC0-24; for Tmax: median (min, max)
Protocol: The food effect was evaluated with a 90 mg QD dosage during cycle 1 at day 1 (Table 2; FIG. 3).

[5] = subject with follicular lymphoma, 45 mg BID
[6] = subject with myxofibrosarcoma, 45 mg BID
[7] = subject with pancreatic cancer, 45 mg BID

Structure (SMILES): CC(C)OC(=O)Nc1ccc(-c2cnc([C@H]3CC[C@H](NC(=O)OC(C)C)CC3)s2)c(S(=O)(=O)NC(C)(C)C)c1 [Compound 67A]
- Cmax ([1]; 15 mg BID): 338 ng/mL
- Tmax ([1]; 15 mg BID): 2 h
- AUC(0-t) ([1]; 15 mg BID, AUC0-12): 2630 ng·h/mL
- Cmax ([1]; 20 mg BID): 670 ng/mL
- Tmax ([1]; 20 mg BID): 2 h
- AUC(0-t) ([1]; 20 mg BID, AUC0-12): 5940 ng·h/mL
- Cmax ([1]; 30 mg BID): 1210 ng/mL
- Tmax ([1]; 30 mg BID): 2 h
- AUC(0-t) ([1]; 30 mg BID, AUC0-12): 10200 ng·h/mL
- AUC(0-t) ([1]; 45 mg BID, AUC0-12, mean ± SD, n = 2): 13500 ± 8270 ng·h/mL
- Cmax ([1]; 45 mg BID, mean ± SD): 1430 ± 362 ng/mL
- Tmax ([1]; 45 mg BID, median (min, max)): 1.5 h
- AUC(0-t) ([1]; 90 mg QD, AUC0-8, mean ± SD): 11500 ± 5570 ng·h/mL
- Cmax ([1]; 90 mg QD, mean ± SD): 1740 ± 930 ng/mL
- Tmax ([1]; 90 mg QD, median (min, max)): 2.5 h
- AUC(0-t) ([1]; 130 mg QD, AUC0-8, mean ± SD): 12800 ± 3980 ng·h/mL
- Cmax ([1]; 130 mg QD, mean ± SD): 1800 ± 438 ng/mL
- Tmax ([1]; 130 mg QD, median (min, max)): 2 h
- AUC(0-t) ([1]; 200 mg QD, AUC0-8, mean ± SD): 20600 ± 12200 ng·h/mL
- Cmax ([1]; 200 mg QD, mean ± SD): 3460 ± 2470 ng/mL
- Tmax ([1]; 200 mg QD, median (min, max)): 3.75 h
- systemic exposure versus dose ([1]; preliminary pharmacokinetic analyses, Phase 1/2 subjects): dose proportional systemic exposure
- metabolic activity in non-target lesions ([2]; subject with DLBCL): significant reduction in metabolic activity in non-target lesions
- target lesions ([2]; subject with DLBCL): near complete resolution of target lesions
- response ([2]; subject with DLBCL, 45 mg BID): partial responses; also recorded: confirmed partial response
- tumor change ([2]; subject with DLBCL, 45 mg BID, Lugano): −74%
- time on treatment ([2]; subject with DLBCL, 45 mg BID): ≥ 126 days
- decrease ([2]; subject with follicular lymphoma (45 mg BID), C3D1): 42%
- decrease ([2]; subject with follicular lymphoma (45 mg BID), C5D1): 47%
- response ([2]; subject with follicular lymphoma (45 mg BID, escalated to 130 mg QD at C5D1), end of the sixth month): unconfirmed partial response
- response ([2]; subject with follicular lymphoma, 30 mg BID): stable disease with evidence of clinical benefit
- decrease ([2]; subject with follicular lymphoma, 30 mg BID, C3D1): 27%
- duration of stable disease [2, 5]: ≥ 99 days
- tumor change [2, 5]: −42%
- response ([2]; subject with follicular lymphoma, 45 mg BID, at data cut off): stable disease with tumor shrinkage
- overall decrease ([2]; subject with follicular lymphoma, C7D1, after escalation to 130 mg QD at C5D1): 67%
- response ([2]; subject with leiomyosarcoma): stable disease
- change by RECIST ([2]; subject with leiomyosarcoma, six months): 0%
- decrease ([2]; subject with myxofibrosarcoma): 30%
- response [2, 6]: partial responses; also recorded: unconfirmed partial response
- tumor change ([2]; subject with myxofibrosarcoma, 45 mg BID, RECIST v1.1): −30%
- time on treatment [2, 6]: ≥ 250 days
- response ([2]; subject with ovarian cancer): stable disease
- decrease by RECIST v1.1 ([2]; subject with ovarian cancer, two months): 29%
- decrease by RECIST ([2]; subject with pancreatic cancer): 19%
- drop in CA19-9 ([2]; subject with pancreatic cancer): ≥ 70%
- duration of stable disease [2, 7]: 111 days
- response [2, 7]: stable disease with tumor shrinkage; also recorded: stable disease with evidence of clinical benefit
- tumor change [2, 7]: −19%
- Compound 67A-related myelosuppression, serious adverse events, study discontinuation, or deaths [3]: no reported
- dose-limiting toxicity ([3]; 6 cohorts (15, 20, 30, 45 mg BID; 90, 130 mg QD), 28-day cycles): No subjects experienced a dose-limiting toxicity
- Grade 1/2 constipation (related adverse event) ([3]; n=2): 8.7%
- Grade 1/2 nausea (related adverse event) ([3]; n=3): 13%
- subjects with a Compound 67A-related adverse event ([3]; six subjects): 26.1%
- impact of food on drug exposure ([4]; 90 mg QD food-effect cohort): minimal impact of food on drug exposure
- Cmax ([4]; Fasted Patients (n = 3)): 574 ± 304 ng/mL
- AUC(0-t) ([4]; Fasted Patients (n = 3)): 5950 ± 2900 ng·h/mL
- Tmax ([4]; Fasted Patients (n = 3)): 4 h
- Cmax ([4]; Fed Patients (n = 3)): 458 ± 129 ng/mL
- AUC(0-t) ([4]; Fed Patients (n = 3)): 6430 ± 1840 ng·h/mL
- Tmax ([4]; Fed Patients (n = 3)): 8 h

Reference: patent publication US20210275503A1, “TARGETING HOMOLOGOUS RECOMBINATION: A NEW SYTHETIC LETHAL THERAPEUTIC PARADIGM” (Cyteir Therapeutics, Inc., priority 2020, published 2021)
